The values below come from patent publication US6608069B1, “Phenyl xanthine derivatives” (SmithKline Beecham Corporation, priority 1998, dated 2003).

In the first experiment the test system is cytokine-stimulated human umbilical vein endothelial cells. As to the kind of experiment: Cell Adhesion Assay: adherence of fluorescently-labelled leukocytes to endothelial cell monolayers. In kind it is cell-based. The conditions noted are these: Homo sapiens; inhibition of cytokine-stimulated adhesion minus basal adhesion; calcein-AM labelled leukocytes on HUVEC monolayers. The procedure: The antiadhesion activity of compounds of the invention was determined using a modification of the previously described method, Jurgensen, C. H. et. al., J. Immunol. 144: 653-661. The adhesiveness of cytokine-stimulated human umbilical vein endothelial cells was assessed by quantitating the adherence of fluorescently-labelled (calcein-AM, Molecular Probes, Eugene, Oreg.) leukocytes to endothelial cell monolayers. Activity was determined by calculating inhibition of cytokine-stimulated adhesion minus the basal adhesion (unstimulated).
What is called IC50 is the midpoint of a concentration-inhibition curve. For the molecule `COCCOCCOCCOCCOCCOCCOCCOCCOCCOCc1ccc(-c2nc3c([nH]2)c(=O)n(CC2CCCCC2)c(=O)n3CC2CCCCC2)cc1` [Example 96, 1,3-Bis(cyclohexylmethyl)-8-[4-(2,5,8,11,14,17,20,23,26,29-decaoxatriacont-1-yl)phenyl]-3,7-dihydro-1H-purine-2,6-dione], the IC50 is 49 ± 16 nM.

Staying with this experiment, now noted: inhibition of cytokine-stimulated adhesion minus basal adhesion; calcein-AM labelled leukocytes on HUVEC monolayers.
Take `COCCOCCOCCOCCOCCOCCOCCOCCOCCOC(=O)/C=C/c1ccc(-c2nc3c(=O)n(C)c(=O)n(Cc4cccc(C#N)c4)c3[nH]2)cc1` [Example 52, (E)-4-(1-methyl-3-(3-cyanobenzyl)-1,2,3,6-tetrahydro-2,6-dioxo-9H-purin-8-yl)cinnamic Acid Nonaethylene Glycol Methyl Ether Ester]: the IC50 is 410 ± 60 nM.
As for `COCCOCCOCCOCCOCCOCCOCCOCCOCCOC(=O)/C=C/c1ccc(-c2nc3c(=O)n(CC4CC4)c(=O)n(CC4CC4)c3[nH]2)cc1` [Example 38, (E)-4-(1,3-bis(cyclopropylmethyl)-1,2,3,6-tetrahydro-2,6-dioxo-9H-purin-8-yl)cinnamic Acid Nonaethylene Glycol Methyl Ether Ester], the IC50 was 150 ± 83 nM.
On the same count and under the same terms, under `COCCOCCOCCOCCOCCOCCOCCOCCOCCNC(=O)c1ccc(-c2nc3c(c(=O)n(CC4CCCCC4)c(=O)n3CC3CCCCC3)n2Cc2ccccc2)cc1` [Example 93, 4-(1,3-Bis(cyclohexylmethyl)-2,3,6,7-tetrahydro-2,6-dioxo-7-benzyl-1H-purin-8-yl)benzoic Add Nonaethylene Glycol Methyl Ether Amide] stands 69 ± 97 nM; under `COCCOCCOCCOCCOCCOCCOCCOCCOCCOC(=O)/C=C/c1ccc(-c2nc3c(=O)[nH]c(=O)n(CC(C)C)c3[nH]2)cc1` [Example 57], 83 ± 41 nM; under `COCCOCCOCCOCCOCCOCCOCCOCCOCCOC(=O)/C=C/c1ccc(-c2nc3c(c(=O)[nH]c(=O)n3CC3CCCCC3)n2C)cc1` [Example 104, (E)-4-[(3-Cyclohexylmethyl)-2,3,6,7-tetrahydro-2,6dioxo-7-methyl-1H-purin-8-yl]cinnamic Acid Nonaethylene Glycol Methyl Ether Ester], 86 ± 54 nM.
Consider `COCCOCCOCCOCCOCCOCCOCCOCCOCCNC(=O)c1ccc(-c2nc3c(=O)n(CC4CCCCC4)c(=O)n(CC4CCCCC4)c3[nH]2)nc1` [Example 99, 6-(1,3-Bis(cyclohexylmethyl)-1,2,3,6-tetrahydro-2,6-dioxo-9H-purin-8-yl)nicotinic Acid Nonaethylene Glycol Methyl Ether Amide], for which the half-maximal inhibitory concentration (IC50) is 77 ± 29 nM.
For `COCCOCCOCCOCCOCCOCCOCCOCCOCCOC(=O)/C=C/c1ccc(-c2nc3c(=O)n(CCc4ccccc4)c(=O)n(CCc4ccccc4)c3[nH]2)cc1` [Example 55, (E)-4-(1,3-bis(2-phenylethyl)-1,2,3,6-tetrahydro-2,6-dioxo-9H-purin-8-yl)cinnamic Acid Nonaethylene Glycol Methyl Ether Ester], the concentration for half-maximal inhibition (IC50) is 51 ± 45 nM.
Consider `COCCOCCOCCOCCOCCOCCOCCOCCOCCOC(=O)/C=C/c1ccc(-c2nc3c(=O)n(C)c(=O)n(CC(C)C)c3[nH]2)cc1` [Example 63, (E)-4-(1-methyl-3-(2-methylpropyl)-1,2,3,6-tetrahydro-2,6-dioxo-9H-purin-8-yl)cinnamic Acid Nonaethylene Glycol Methyl Ether Ester], for which the 50% inhibitory concentration (IC50) is 55 ± 34 nM.
On to `COCCOCCOCCOCCOCCOCCOCCOCCOCCOC(=O)/C=C/c1ccc(-c2nc3c(=O)n(C)c(=O)n(C)c3[nH]2)cc1` [Example 47, (E)-4-(1,3-bis(methyl)-1,2,3,6-tetrahydro-2,6-dioxo-9H-purin-8-yl)cinnamic Acid Nonaethylene Glycol Methyl Ether Ester], for which the 50% inhibitory concentration (IC50) is 710 ± 410 nM.
Regarding `O=C(/C=C/c1ccc(-c2nc3c(=O)n(CC4CCCCC4)c(=O)n(CC4CCCCC4)c3[nH]2)cc1)NCCOCCOCCOCCOCCOCCOCc1ccccc1` [Example 101, (E)-4-(1,3-Bis(cyclohexylmethyl)-1,2,3,6-tetrahydro-2,6-dioxo-9H-purin-8-yl)cinnamic Acid Hexaethylene Glycol Benzyl Ether Amide], the IC50 was 340 ± 94 nM.
In the case of `COCCOCCOCCOCCOCCOCCOCCOC(=O)/C=C/c1ccc(-c2nc3c(c(=O)[nH]c(=O)n3CC3CCCCC3)n2C)cc1` [Example 103, (E)-4-[(3-Cyclohexylmethyl)-2,3,6,7-tetrahydro-2,6-dioxo-7-methyl-1H-purin-8-yl]cinnamic Acid Heptaethylene Glycol Methyl Ether Ester], the IC50 is 230 ± 110 nM.
As for `COCCOCCOCCOCCOCCOCCOCCOCCOCCOC(=O)/C=C/c1ccc(-c2nc3c(=O)n(Cc4ccccc4)c(=S)n(Cc4ccccc4)c3[nH]2)cc1` [Example 50, (E)-4-(1,3-bis(benzyl)-1,2,3,6-tetrahydro-2-thioxo-6-oxo-9H-purin-8-yl)cinnamic Acid Nonaethylene Glycol Methyl Ether Ester], the 50% inhibitory concentration (IC50) was 270 ± 150 nM.
For `COCCOCCOCCOCCOCCOCCOCCOCCOCCOC(=O)/C=C/c1ccc(-c2nc3c(=O)n(CC(C)C)c(=O)n(CC(C)C)c3[nH]2)cc1` [Example 43, (E)-4-(1,3-bis(2-methylpropyl)-1,2,3,6-tetrahydro-2,6-dioxo-9H-purin-8-yl)cinnamic Acid Nonaethylene Glycol Methyl Ether Ester], the IC50 is 7.1 ± 2 nM.
With `CCOC(=O)Cn1c(-c2ccc(/C=C/C(=O)OCCOCCOCCOCCOCCOCCOCCOCCOCCOC)cc2)nc2c1c(=O)n(CC1CCCCC1)c(=O)n2CC1CCCCC1` [Example 84, (E)-4-(1,3-Bis(cyclohexylmethyl)-2,3,6,7-tetrahydro-2,6-dioxo-7-(2-ethoxy-2-oxoethyl)-1H-purin-8-yl)cinnamic Acid Nonaethylene Glycol Methyl Ether Ester], the IC50 is 7 ± 4 nM.
Still for that read-out and setting: next, `CCCn1c(=O)c2nc(-c3cccc(/C=C/C(=O)OCCOCCOCCOCCOCCOCCOCCOCCOCCOC)c3)[nH]c2n(Cc2ccccc2)c1=O` [Example 39, (E)-3-((1-propyl-3-benzyl)-1,2,3,6-tetrahydro-2,6-dioxo-9H-purin-8-yl)cinnamic Acid Nonaethylene Glycol Methyl Ether Ester]: 130 ± 80 nM; `COCCOCCOCCOCCOCCOCCOCCOCCOCCOC(=O)/C=C/c1ccc(-c2nc3c(=O)n(-c4ccccc4)c(=O)n(-c4ccccc4)c3[nH]2)cc1` [Example 42, (E)-4-(1,3-bis(phenyl)-1,2,3,6-tetrahydro-2,6-dioxo-9H-purin-8-yl)cinnamic Acid Nonaethylene Glycol Methyl Ether Ester]: 12 ± 12 nM.
As to `COCCOCCOCCOCCOCCOCCOCCOCCOCCOC(=O)/C=C/c1ccc(-c2nc3c(=O)n(C)c(=O)n(CC4CCCCC4)c3[nH]2)cc1` [Example 62], the IC50 was 160 ± 85 nM.
In the case of `COCCOCCOCCOCCOCCOCCOCCOCCOCCOC(=O)/C=C/c1ccc(-c2nc3c(=O)n(CC4CC5CCC4C5)c(=O)n(CC4CC5CCC4C5)c3[nH]2)cc1` (stereo not shown) [Example 45, (E)-4-(1,3-bis(bicyclo(2.2.1)hept-2-ylmethyl)-1,2,3,6-tetrahydro-2,6-dioxo-9H-purin-8-yl)cinnamic Acid Nonaethylene Glycol Methyl Ether Ester], the IC50 is 42 ± 24 nM.
Consider `COCCOCCOCCOCCOCCOCCOCCOCCOCCOC(=O)/C=C/c1ccc(-c2nc3c(=O)n(Cc4ccccc4F)c(=O)n(Cc4ccccc4F)c3[nH]2)cc1` [Example 54, (E)-4-(1,3-bis(2-fluorobenzyl)-1,2,3,6-tetrahydro-2,6-dioxo-9H-purin-8-yl)cinnamic Acid Nonaethylene Glycol Methyl Ether Ester], for which the IC50 is 76 ± 28 nM.
With `COCCOCCOCCOCCOCCOCCOCCOCCOCCOC(=O)/C=C/c1ccc(-c2nc3c(c(=O)n(CC4CCCCC4)c(=O)n3CC3CCCCC3)n2CN2CCOCC2)cc1` [Example 82, (E)-4-(1,3-Bis(cyclohexylmethyl)-2,3,6,7-tetrahydro-2,6-dioxo-7-(4-morpholinylmethyl)-1H-purin-8-yl)cinnamic Acid Nonaethylene Glycol Methyl Ether Ester], the IC50 was 19 ± 16 nM.
Take `COCCOCCOCCOCCOCCOCCOCCOCCOCCOC(=O)/C=C/c1ccc(-c2nc3c(=O)n(CC4CCCCC4)c(=O)n(CC4CCCCC4)c3[nH]2)cc1` [Example 35, (E)-4-[1,3-Bis(cyclohexylmethyl)-1,2,3,6-tetrahydro-2,6-dioxo-9H-purin-8-yl)cinnamic Acid Nonaethylene Glycol Methyl Ether Ester]: the IC50 was 29 ± 3 nM.
For the molecule `COCCOCCOCCOCCOCCOCCOCCOCCOCCN(CC1CC1)C(=O)/C=C/c1ccc(-c2nc3c(=O)n(CC4CCCCC4)c(=O)n(CC4CCCCC4)c3[nH]2)cc1` [Example 100, (E)-4-(1,3-Bis(cyclohexylmethyl)-1,2,3,6-tetrahydro-2,6-dioxo-9H-purin-8-yl)cinnamic Acid N-cyclopropylmethyl Nonaethylene Glycol Methyl Ether Amide], the IC50 was 25 ± 8 nM.
Same read-out and setting: under `COCCOCCOCCOCCOCCOCCOCCOCCOCCNC(=O)/C=C/c1cccc(-c2nc3c(=O)n(CC4CCCCC4)c(=O)n(CC4CCCCC4)c3[nH]2)c1` [Example 67, (E)-3-(1,3-bis(cyclohexylmethyl)-1,2,3,6-tetrahydro-2,6-dioxo-9H-purin-8-yl)cinnamic Acid Nonaethylene Glycol Methyl Ether Amide] stands 2000 ± 820 nM; under `COCCOCCOCCOCCOCCOCCOCCOCCOCCOC(=O)/C=C/c1ccc(-c2nc3c(=O)n(Cc4cccnc4)c(=O)n(Cc4cccnc4)c3[nH]2)cc1` [Example 64, (E)-4-(1,3-Bis(3-pyridinylmethyl)-1,2,3,6-tetrahydro-2,6-dioxo-9H-purin-8-yl)cinnamic Acid Nonaethylene Glycol Methyl Ether Ester], greater than 1000 nM.
